Measured values reported in patent US20120065153A1, “AZASUGAR DERIVATIVES, HEPARANASE INHIBITORS, METHOD FOR PREPARING SAME, COMPOSITIONS CONTAINING SAME, USE THEREOF” (SANOFI-AVENTIS, priority 2004, published 2012).

Tests used:
HT1080 tumour cells = experiment: Invasion of HT1080 tumour cells through Matrigel (cell invasion test); type: cell-based, human
Protocol: The effect of the compounds of formula (I), inhibitors of heparanases, was tested in vitro on the invasion of HT1080 tumour cells.
The cells derived from human fibrosarcomas, HT1080 (ATCC CCL-121) are cultured in a DMEM medium (Ref.: GIBCO 11960-044) containing 5% Foetal Calf Serum, glutamine (2 mM) (Ref.: GIBCO 25030-024), sodium pyruvate (1 mM) (Ref.: GIBCO 11360-039) and nonessential amino acids (1×) (Ref.: GIBCO 11140-035), on collagen coated flasks (Becton Dickinson 75 cm^2; Ref. 354523), to 50 to 80% confluence.
The measurements of invasion of the HT1080 cells are carried out on a Becton Dickinson falcon HTS Fluoroblock Multiwell Insert System kit in 24-well plates (Ref.: 351158). These measurement chambers give the cells the conditions which make it possible to evaluate their invasive properties in vitro.
The kit is composed of a plate combined with culture inserts containing a PET membrane pierced with 8 micron pores on which a uniform Matrigel Matrix (Becton Dickinson; Ref. 354230) layer is deposited.
Matrigel is a soluble basal membrane extracted from the EHS (Engelbreth-Holm-Swarm) tumour which, by virtue of its composition, forms, upon solidifying, a structure equivalent to a basal membrane.
The Matrigel layer blocks the pores of the membrane, thus blocking the migration of the noninvasive cells across the membrane. By contrast, the invasive (tumour or nontumour) cells will be capable of becoming detached and of invading the Matrigel layer before migrating across the membrane.
The quantification of the cell migration is carried out by labelling with calcein AM (Molecular Probes C-3100). The fluorescent signal emitted is measured with the aid of a Perkin Elmer Wallac VICTOR 3 reader and may be directly correlated with the number of cells which have invaded the Matrigel gel. By comparing them with controls made in the same experiment as the products studied (response in the presence of 0% and 5% foetal calf serum), it is possible to determine a percentage inhibition of cell invasion in the presence of the products.

heparanase = molecular target: T1, heparanase (Homo sapiens, UniProt Q9Y251); experiment: Heparanase inhibition in an enzymatic system (degradation of fondaparinux, read out by anti-factor Xa activity); type: biochemical; conditions: mean±SD, done on two assays
T1 sequence (Q9Y251 36-543): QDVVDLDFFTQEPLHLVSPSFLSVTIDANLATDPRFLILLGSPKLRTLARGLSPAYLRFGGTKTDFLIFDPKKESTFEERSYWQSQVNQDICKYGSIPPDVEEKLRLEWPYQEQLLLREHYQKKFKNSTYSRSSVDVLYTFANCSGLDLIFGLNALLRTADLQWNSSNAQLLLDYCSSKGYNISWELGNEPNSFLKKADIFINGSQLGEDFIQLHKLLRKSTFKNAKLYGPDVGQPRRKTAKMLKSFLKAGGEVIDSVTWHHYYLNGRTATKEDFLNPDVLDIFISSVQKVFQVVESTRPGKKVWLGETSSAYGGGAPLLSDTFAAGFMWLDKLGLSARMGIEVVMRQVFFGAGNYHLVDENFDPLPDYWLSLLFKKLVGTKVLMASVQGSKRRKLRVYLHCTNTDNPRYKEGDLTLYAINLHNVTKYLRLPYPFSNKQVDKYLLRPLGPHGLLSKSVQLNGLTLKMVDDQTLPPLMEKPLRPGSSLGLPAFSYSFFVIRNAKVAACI
Protocol: The concentration of fondaparinux is determined by means of its anti-factor Xa activity.
The heparanase is produced by Sanofi-Synthelabo (Labège, France).
The reagents for assaying factor Xa are marketed by Chromogénix (Montpellier, France).
Increasing concentrations of a compound according to the invention, an inhibitor of heparanases (varying dilutions: from 1 nM to 10 μM) are mixed at a fixed heparanase concentration (for each batch, preliminary experiments make it possible to determine the enzymatic activity which is sufficient for the degradation of 0.45 μg/ml of added fondaparinux). After 5 minutes at 37° C., the mixture is exposed to fondaparinux and left for 1 hour at 37° C. The reaction is stopped by heating at 95° C. for 5 minutes. The residual fondaparinux concentration is finally measured by adding factor Xa and its specific chromogenic substrate (Ref. S2222).
The various mixtures are produced according to the following procedure:
50 μl of sodium acetate buffer (0.2 M, pH 4.2) are mixed with 50 μl of fondaparinux (0.45 μg/ml) and 59 μl of a heparanase solution. The mixture is incubated for 1 hour at 37° C. and then for 5 minutes at 95° C. […]
The anti-factor Xa activity of fondaparinux is measured in the following manner: […]
The optical density is read at 405 nm.
A percentage inhibition is determined relative to control without inhibitor. […]

SMILES	inhibition of cell invasion (HT1080 tumour cells; 0.3 μM) [%]	inhibition of cell invasion (HT1080 tumour cells; 1 μM) [%]	inhibition of cell invasion (HT1080 tumour cells; 10 μM, four independent determinations, mean±standard deviation) [%]	effect on cell invasion as a function of dose (HT1080 tumour cells; HT1080 cells)	IC50 (heparanase) [nM]
CC(=O)N[C@H]1[C@@H](O[C@H]2[C@H](O)CNC[C@@H]2C(=O)O)O[C@H](COS(=O)(=O)O)[C@@H](O[C@@H]2O[C@@H](C(=O)O)[C@@H](O[C@H]3O[C@H](COS(=O)(=O)O)[C@@H](O[C@@H]4O[C@@H](C(=O)O)[C@@H](OS(=O)(=O)O)[C@H](O)[C@H]4OS(=O)(=O)O)[C@H](O)[C@H]3NC(C)=O)[C@H](O)[C@H]2OS(=O)(=O)O)[C@@H]1O.[Na+].[Na+].[Na+].[Na+].[Na+].[Na+].[Na+].[Na+] [compound No. 20, (2,4-di-O-sodium sulphonato-α-L-idopyranosyluronate of sodium)-(1-4)-(2-acetamido-2-deoxy-6-O-sodiumsulphonato-α-D-glucopyranosyl)-(1-4)-(2-O-sodiumsulphonato-α-L-idopyranosyluronate of sodium)-(1-4)-(2-acetamido-2-deoxy-6-O-sodiumsulphonato-α-D-glucopyranosyl)-(1-4)-(5-(hydroxy)-4-oxypiperidine-3-carboxylate of sodium (3S,4R,5R))]	26±3	53±11	40.3±8.3	dose-dependent effect	–
O=C(O)[C@H]1CNC[C@@H](O)[C@@H]1O[C@H]1O[C@H](COS(=O)(=O)O)[C@@H](O[C@@H]2O[C@@H](C(=O)O)[C@@H](O[C@H]3O[C@H](COS(=O)(=O)O)[C@@H](O[C@@H]4O[C@@H](C(=O)O)[C@@H](OS(=O)(=O)O)[C@H](O)[C@H]4OS(=O)(=O)O)[C@H](O)[C@H]3NS(=O)(=O)O)[C@H](O)[C@H]2OS(=O)(=O)O)[C@H](O)[C@H]1NS(=O)(=O)O [compound No. 27, (2,4-di-O-sodium sulphonato-α-L-idopyranosyluronate of sodium)-(1-4)-(2-N-sodiumsulphonato-2-deoxy-6-O-sodiumsulphonato-α-D-glucopyranosyl)-(1-4)-(2-O-sodiumsulphonato-α-L-idopyranosyluronate of sodium)-(1-4)-(2-N-sodiumsulphonato-2-deoxy-6-O-sodiumsulphonato-α-D-glucopyranosyl)-(1-4)-(5-(hydroxy)-4-oxypiperidine-3-carboxylate of sodium (3S,4R,5R))]	–	–	–	–	11 ± 4
